Reference: ChEMBL document CHEMBL1139273, “Aryl aminopyrazole benzamides as oral non-steroidal selective glucocorticoid receptor agonists” (Bioorg Med Chem Lett, 2009)

How the values were obtained:
[1] = Protein binding in human plasma by ultrafiltration; assay type: ADME, cell-free; details: read-out: PPB (converted)
[2] = Oral bioavailability in Sprague-Dawley rat at 1 mg/kg; assay type: ADME, organism-based; details: in vivo
[3] = Clearance in Sprague-Dawley rat at 1 mg/kg, iv and 1 mg/kg, po; assay type: ADME, organism-based; details: in vivo
[4] = molecular target: Albumin (Homo sapiens, UniProt P02768); assay: Binding affinity to human serum albumin by fast gradient HPLC; assay type: ADME; details: isolated protein
[5] = molecular target: Cytochrome P450 3A4 (Homo sapiens, UniProt P08684)
[6] = molecular target: T1, Glucocorticoid receptor (Homo sapiens, UniProt P04150)
T1 sequence (P04150 whole entry): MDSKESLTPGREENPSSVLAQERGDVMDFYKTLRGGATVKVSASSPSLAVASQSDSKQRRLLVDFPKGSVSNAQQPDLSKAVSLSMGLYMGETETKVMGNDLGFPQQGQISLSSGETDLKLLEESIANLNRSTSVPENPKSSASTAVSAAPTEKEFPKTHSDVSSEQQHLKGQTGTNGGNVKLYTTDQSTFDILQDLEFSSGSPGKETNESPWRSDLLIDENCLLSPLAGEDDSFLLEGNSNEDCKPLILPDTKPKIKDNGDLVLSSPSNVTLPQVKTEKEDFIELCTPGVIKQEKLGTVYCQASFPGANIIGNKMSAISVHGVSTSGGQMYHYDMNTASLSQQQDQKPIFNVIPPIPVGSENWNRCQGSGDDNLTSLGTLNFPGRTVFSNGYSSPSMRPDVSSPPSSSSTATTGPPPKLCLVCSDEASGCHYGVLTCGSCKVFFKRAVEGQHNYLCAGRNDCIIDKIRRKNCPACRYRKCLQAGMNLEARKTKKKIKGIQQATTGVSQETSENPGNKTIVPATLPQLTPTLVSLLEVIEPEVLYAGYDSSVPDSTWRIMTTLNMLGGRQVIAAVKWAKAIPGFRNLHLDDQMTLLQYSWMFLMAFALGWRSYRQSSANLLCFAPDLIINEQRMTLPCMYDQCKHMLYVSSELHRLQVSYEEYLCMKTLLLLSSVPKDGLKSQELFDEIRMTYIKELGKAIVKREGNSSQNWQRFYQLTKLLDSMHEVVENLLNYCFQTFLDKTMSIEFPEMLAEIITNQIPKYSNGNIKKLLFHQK
Description: Displacement of fluorescent labelled Dexamethasone from glucocorticoid receptor

[7] = Inhibition of TNF-induced NF-kappaB activation in human A549 cells after 15 hrs; details: Homo sapiens, A549, 15 h, read-out: pIC50 (converted)
[8] = tested on: A549; assay: Inhibition of TNF-induced NFkappaB activation in human A549 cells after 15 hrs relative to Dexamethasone; assay type: cell-based; set-up: scale not given: the % may be the effect or the level left
[9] = Volume of distribution at steady state in Sprague-Dawley rat at 1 mg/kg, iv and 1 mg/kg, po; assay type: ADME, organism-based; details: in vivo, read-out: Vdss
[10] = molecular target: Cytochrome P450 2D6 (Homo sapiens, UniProt P10635); assay: Inhibition of CYP2D6; assay type: ADME
[11] = molecular target: Cytochrome P450 2C9 (Homo sapiens, UniProt P11712); assay: Inhibition of CYP2C9; assay type: ADME
[12] = molecular target: T2, Cytochrome P450 1A2 (Homo sapiens, UniProt P05177); assay: Inhibition of CYP1A2; assay type: ADME
T2 sequence (P05177 whole entry): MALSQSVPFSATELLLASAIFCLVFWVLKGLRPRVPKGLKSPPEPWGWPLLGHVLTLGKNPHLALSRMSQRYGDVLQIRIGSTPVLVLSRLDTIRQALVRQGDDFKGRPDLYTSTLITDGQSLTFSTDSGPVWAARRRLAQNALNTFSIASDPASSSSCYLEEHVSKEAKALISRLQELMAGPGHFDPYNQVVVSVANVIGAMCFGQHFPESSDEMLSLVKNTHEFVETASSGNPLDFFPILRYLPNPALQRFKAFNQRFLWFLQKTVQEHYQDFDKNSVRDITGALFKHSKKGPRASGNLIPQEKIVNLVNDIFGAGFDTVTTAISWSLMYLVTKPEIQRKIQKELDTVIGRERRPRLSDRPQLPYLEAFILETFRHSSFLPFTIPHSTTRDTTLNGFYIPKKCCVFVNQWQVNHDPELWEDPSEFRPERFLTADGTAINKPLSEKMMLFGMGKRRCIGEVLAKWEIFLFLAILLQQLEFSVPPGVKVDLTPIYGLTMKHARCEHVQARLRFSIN

[13] = molecular target: Cytochrome P450 2C19 (Homo sapiens, UniProt P33261); assay: Inhibition of CYP2C19; assay type: ADME
[14] = molecular target: T1, Glucocorticoid receptor; remark: listed apart in the source
Description: Agonist activity at human glucocorticoid receptor in human A549 cells assessed as transcriptional activity by MMTV luciferase reporter gene assay

Sequence of Cytochrome P450 3A4 (P08684 whole entry): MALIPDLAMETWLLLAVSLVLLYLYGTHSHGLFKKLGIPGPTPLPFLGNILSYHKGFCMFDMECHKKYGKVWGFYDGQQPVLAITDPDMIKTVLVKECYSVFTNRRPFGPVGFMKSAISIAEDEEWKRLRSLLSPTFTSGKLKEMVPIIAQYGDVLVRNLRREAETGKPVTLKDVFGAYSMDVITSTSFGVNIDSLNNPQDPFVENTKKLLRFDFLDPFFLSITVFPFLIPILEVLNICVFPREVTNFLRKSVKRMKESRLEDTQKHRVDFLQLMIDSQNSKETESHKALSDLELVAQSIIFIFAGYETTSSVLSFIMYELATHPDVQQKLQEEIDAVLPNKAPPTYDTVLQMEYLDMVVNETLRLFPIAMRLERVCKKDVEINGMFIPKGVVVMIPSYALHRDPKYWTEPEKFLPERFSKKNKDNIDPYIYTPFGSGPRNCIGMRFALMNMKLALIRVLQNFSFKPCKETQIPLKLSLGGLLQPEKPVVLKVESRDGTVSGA
Sequence of Cytochrome P450 2C19 (P33261 whole entry): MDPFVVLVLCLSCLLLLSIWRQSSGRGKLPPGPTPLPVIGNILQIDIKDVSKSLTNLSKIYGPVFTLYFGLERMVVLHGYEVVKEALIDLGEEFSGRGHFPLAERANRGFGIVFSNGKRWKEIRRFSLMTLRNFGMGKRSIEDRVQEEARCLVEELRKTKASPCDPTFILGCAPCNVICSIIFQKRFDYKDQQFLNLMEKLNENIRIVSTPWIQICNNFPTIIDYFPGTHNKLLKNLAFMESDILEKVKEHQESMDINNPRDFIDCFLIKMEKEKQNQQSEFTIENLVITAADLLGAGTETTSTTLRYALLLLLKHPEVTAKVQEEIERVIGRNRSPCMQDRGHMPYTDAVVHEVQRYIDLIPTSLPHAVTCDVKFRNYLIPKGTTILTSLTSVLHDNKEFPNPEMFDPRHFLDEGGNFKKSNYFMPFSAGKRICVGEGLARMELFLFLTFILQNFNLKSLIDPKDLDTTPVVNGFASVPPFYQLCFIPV
Sequence of Cytochrome P450 2D6 (P10635 whole entry): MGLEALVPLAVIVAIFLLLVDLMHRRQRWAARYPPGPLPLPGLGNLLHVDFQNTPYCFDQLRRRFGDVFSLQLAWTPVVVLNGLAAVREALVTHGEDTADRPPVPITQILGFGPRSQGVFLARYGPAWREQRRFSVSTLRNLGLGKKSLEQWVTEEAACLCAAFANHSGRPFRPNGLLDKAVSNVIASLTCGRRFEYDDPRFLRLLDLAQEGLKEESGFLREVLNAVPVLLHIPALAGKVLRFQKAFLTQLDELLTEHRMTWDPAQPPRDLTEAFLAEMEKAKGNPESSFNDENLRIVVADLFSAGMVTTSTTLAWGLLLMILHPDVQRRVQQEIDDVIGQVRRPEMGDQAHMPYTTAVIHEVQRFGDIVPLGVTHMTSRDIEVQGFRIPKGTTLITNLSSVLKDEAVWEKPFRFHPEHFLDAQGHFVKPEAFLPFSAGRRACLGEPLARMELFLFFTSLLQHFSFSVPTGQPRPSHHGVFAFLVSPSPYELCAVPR
Sequence of Albumin (P02768 whole entry): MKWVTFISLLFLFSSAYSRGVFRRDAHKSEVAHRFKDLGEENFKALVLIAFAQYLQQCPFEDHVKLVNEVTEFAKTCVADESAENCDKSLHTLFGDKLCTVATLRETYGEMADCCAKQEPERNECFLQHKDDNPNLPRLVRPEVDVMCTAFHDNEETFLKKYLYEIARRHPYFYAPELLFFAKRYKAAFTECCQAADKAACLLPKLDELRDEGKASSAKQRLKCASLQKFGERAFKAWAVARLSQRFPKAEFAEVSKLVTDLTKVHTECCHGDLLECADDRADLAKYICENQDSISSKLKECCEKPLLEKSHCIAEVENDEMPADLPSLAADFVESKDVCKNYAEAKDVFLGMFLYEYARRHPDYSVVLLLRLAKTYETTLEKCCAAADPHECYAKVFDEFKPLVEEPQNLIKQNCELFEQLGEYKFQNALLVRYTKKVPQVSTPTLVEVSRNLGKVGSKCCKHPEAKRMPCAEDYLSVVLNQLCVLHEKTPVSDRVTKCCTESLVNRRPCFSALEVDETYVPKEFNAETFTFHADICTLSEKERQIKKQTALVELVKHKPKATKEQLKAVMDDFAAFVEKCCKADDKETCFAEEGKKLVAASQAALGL
Sequence of Cytochrome P450 2C9 (P11712 whole entry): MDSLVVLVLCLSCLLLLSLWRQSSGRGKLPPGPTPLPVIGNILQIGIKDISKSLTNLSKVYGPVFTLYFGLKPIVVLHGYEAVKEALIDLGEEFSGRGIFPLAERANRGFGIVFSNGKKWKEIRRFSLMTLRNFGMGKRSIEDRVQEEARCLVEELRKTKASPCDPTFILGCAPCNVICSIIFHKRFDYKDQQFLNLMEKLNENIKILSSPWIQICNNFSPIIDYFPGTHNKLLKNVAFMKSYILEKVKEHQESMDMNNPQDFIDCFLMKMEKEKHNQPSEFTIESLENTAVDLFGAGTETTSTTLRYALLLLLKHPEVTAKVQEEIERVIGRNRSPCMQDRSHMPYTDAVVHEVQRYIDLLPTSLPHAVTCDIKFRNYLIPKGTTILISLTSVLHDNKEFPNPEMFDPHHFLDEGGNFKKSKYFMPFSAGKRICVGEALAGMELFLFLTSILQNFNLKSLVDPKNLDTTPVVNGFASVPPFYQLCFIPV

| Compound | fraction unbound [1] | bioavailability [2] [%] | clearance [3] [mL/min/kg] | Activity [4] [%] | IC50 [5] [µM] | IC50 [6] [µM] | IC50 [7] [µM] | Activity [8] [%] | Vd [9] [L/kg] | IC50 [10] [µM] | IC50 [11] [µM] | IC50 [12] [µM] | IC50 [13] [µM] | EC50 [14] [µM] |
| --- | --- | --- | --- | --- | --- | --- | --- | --- | --- | --- | --- | --- | --- | --- |
| Nc1c(C(=O)NCC(O)(CN(CCO)C(=O)c2c(F)cccc2F)C(F)(F)F)cnn1-c1ccc(F)cc1 (stereo not drawn) | 0.32 | 44 | 8 | 81 | 76 | 0.0158 | 0.02 | 94 | 0.9 | 100 | 13 | 100 | 40 | 0.0501 |
| Nc1c(C(=O)NCC(O)(CN(CCF)C(=O)c2c(F)cccc2F)C(F)(F)F)cnn1-c1ccc(F)cc1 (racemic) | 0.07 | 39 | 21 | 93 | 0.5 | 0.02 | 0.01 | 94 | 2.6 | 20 | 4 | 100 | 8 | 0.0501 |
